Results published in patent US20230233569A1 (Revolution Medicines, Inc., priority 2020, published 2023).
Read-outs that look alike come from different tables or passages of the source.

Tests used:
Capan-1 (K-Ras G12V) = assay: CellTiter-Glo cell viability assay, 5-day treatment; format: cell-based; conditions: Homo sapiens, CAPAN-1, 120 h, 5-day treatment; read-out: Capan-1 Cell Viability assay data (K-Ras G12V, IC50)
Method in brief: (§1)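 Viability is read as luminescence on day 5 after direct compound addition to plated cells, following about 30 minutes' room-temperature equilibration. Each signal is scaled to mean DMSO as 100%.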

NCI-H358 (K-Ras G12C) = assay: as above; format: cell-based; conditions: Homo sapiens, NCI-H358, 120 h, 5-day treatment; read-out: H358 Cell Viability assay data (K-Ras G12C, IC50)
Method in brief: as §1

KRAS G12D = KRAS G12D (Homo sapiens, UniProt P01116+P62937, G12D); assay: Disruption of BRAF RBD interaction with Ras (FRET / MOA assay, with Cyclophilin A); format: biochemical
KRAS G12D, sequence (P01116 1-169 isoform P01116-2 G12D limits assumed): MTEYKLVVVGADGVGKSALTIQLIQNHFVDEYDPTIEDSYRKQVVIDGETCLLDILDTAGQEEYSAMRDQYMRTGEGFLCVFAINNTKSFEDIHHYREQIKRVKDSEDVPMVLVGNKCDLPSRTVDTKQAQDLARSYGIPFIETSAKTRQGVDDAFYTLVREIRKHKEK
KRAS G12D, sequence (P62937 whole entry): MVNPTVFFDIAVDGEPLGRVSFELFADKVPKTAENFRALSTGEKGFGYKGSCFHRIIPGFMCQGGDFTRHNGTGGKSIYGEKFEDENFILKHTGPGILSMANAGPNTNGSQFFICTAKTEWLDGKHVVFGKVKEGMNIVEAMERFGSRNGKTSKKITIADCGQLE
Method in brief: (§2)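 First, compounds at a ten-point threefold dilution series (highest final concentration 30 μM) were incubated with nucleotide-loaded K-Ras, Cyclophilin A and BRAF RBD for 3 h at 25 °C. Next, detection antibodies were added for 1.5 h. Finally, IC50 was calculated from TR-FRET ratio decreases against DMSO controls.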

KRAS G12C = KRAS G12C (Homo sapiens, UniProt P01116+P62937, G12C); assay: as above; format: biochemical
KRAS G12C, sequence (P01116 1-169 isoform P01116-2 G12C): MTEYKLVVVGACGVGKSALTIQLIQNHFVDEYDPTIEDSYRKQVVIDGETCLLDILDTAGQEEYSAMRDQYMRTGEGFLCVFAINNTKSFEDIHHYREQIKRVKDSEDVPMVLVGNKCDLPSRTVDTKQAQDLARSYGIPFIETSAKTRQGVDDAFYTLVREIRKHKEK
KRAS G12C, sequence (P62937 whole entry): as the sequence (P62937 whole entry) above
Method in brief: as §2

KRAS WT = KRAS WT (Homo sapiens, UniProt P01116+P62937); assay: as above; format: biochemical
KRAS WT, sequence (P01116 1-169 isoform P01116-2 limits assumed): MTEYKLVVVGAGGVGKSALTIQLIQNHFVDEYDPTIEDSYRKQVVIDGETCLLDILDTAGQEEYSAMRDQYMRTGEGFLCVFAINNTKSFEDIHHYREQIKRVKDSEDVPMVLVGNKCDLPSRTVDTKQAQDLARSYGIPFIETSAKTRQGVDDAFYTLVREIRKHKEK
KRAS WT, sequence (P62937 whole entry): as the sequence (P62937 whole entry) above
Method in brief: as §2

KRAS G12V = KRAS G12V (Homo sapiens, UniProt P01116+P62937, G12V); assay: as above; format: biochemical
KRAS G12V, sequence (P01116 1-169 isoform P01116-2 G12V limits assumed): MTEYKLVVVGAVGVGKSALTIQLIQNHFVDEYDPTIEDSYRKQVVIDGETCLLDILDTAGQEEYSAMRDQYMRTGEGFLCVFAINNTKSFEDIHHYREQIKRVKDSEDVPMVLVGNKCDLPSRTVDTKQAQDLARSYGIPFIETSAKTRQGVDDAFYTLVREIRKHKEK
KRAS G12V, sequence (P62937 whole entry): as the sequence (P62937 whole entry) above
Method in brief: as §2

NRAS G12C = NRAS G12C (Homo sapiens, UniProt P01111+P62937, G12C); assay: as above; format: biochemical
NRAS G12C, sequence (P01111 whole entry G12C): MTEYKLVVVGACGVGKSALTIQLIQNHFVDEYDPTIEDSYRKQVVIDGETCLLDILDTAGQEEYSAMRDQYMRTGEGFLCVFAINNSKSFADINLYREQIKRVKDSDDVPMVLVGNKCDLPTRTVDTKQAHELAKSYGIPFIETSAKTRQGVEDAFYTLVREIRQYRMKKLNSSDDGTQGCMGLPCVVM
NRAS G12C, sequence (P62937 whole entry): as the sequence (P62937 whole entry) above

KRAS G12S = KRAS G12S (Homo sapiens, UniProt P01116+P62937, G12S); assay: as above; format: biochemical
KRAS G12S, sequence (P01116 1-169 isoform P01116-2 G12S limits assumed): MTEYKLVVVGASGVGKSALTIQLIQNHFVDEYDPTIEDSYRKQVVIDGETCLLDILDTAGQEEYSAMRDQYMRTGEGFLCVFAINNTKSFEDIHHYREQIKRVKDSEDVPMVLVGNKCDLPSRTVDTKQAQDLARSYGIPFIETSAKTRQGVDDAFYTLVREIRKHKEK
KRAS G12S, sequence (P62937 whole entry): as the sequence (P62937 whole entry) above
Method in brief: as §2

KRAS G13D = KRAS G13D (Homo sapiens, UniProt P01116+P62937, G13D); assay: as above; format: biochemical
KRAS G13D, sequence (P01116 1-169 isoform P01116-2 G13D limits assumed): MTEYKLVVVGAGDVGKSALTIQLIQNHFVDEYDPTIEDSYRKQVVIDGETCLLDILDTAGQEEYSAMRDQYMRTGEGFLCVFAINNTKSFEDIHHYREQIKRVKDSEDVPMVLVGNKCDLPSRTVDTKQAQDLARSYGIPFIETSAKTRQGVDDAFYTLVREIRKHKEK
KRAS G13D, sequence (P62937 whole entry): as the sequence (P62937 whole entry) above
Method in brief: as §2

KRAS G13C = KRAS G13C (Homo sapiens, UniProt P01116+P62937, G13C); assay: as above; format: biochemical
KRAS G13C, sequence (P01116 1-169 isoform P01116-2 G13C): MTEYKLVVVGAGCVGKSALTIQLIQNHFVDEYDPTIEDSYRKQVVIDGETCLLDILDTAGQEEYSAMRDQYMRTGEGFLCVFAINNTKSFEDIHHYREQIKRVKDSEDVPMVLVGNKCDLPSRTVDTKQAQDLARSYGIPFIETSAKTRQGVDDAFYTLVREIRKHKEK
KRAS G13C, sequence (P62937 whole entry): as the sequence (P62937 whole entry) above
Method in brief: as §2

NRAS WT = NRAS WT (Homo sapiens, UniProt P01111+P62937); assay: as above; format: biochemical; conditions: NRAS WT; read-out: NRAS WT FRET data IC50
NRAS WT, sequence (P01111 whole entry): as the sequence (P01111 whole entry G12C) above, with C12G counted along it
NRAS WT, sequence (P62937 whole entry): as the sequence (P62937 whole entry) above
Method in brief: (§3)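 IC50 reflects compound-driven Ras:Cyclophilin A ternary complex displacing BRAF RBD, read as lowered TR-FRET ratio relative to DMSO after Eu anti-His (10 nM) and APC anti-GST (50 nM) detection for 1.5 h. Prior incubation 3 h, 25° C, with 12.5 nM GMPPNP-loaded Ras, 50 nM BRAF RBD, 25 μM Cyclophilin A; top compound 30 μM.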

KRAS Q61H = KRAS Q61H (Homo sapiens, UniProt P01116+P62937, Q61H); assay: as above; format: biochemical; conditions: KRAS Q61H; read-out: KRAS Q61H FRET data IC50
KRAS Q61H, sequence (P01116 1-169 isoform P01116-2 Q61H limits assumed): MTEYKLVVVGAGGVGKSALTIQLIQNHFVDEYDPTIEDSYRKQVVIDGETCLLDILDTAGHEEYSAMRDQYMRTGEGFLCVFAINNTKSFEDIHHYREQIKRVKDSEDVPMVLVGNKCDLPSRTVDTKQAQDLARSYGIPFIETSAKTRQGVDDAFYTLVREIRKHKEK
KRAS Q61H, sequence (P62937 whole entry): as the sequence (P62937 whole entry) above
Method in brief: as §3

NRAS Q61K = NRAS Q61K (Homo sapiens, UniProt P01111+P62937, Q61K); assay: as above; format: biochemical; conditions: NRAS Q61K; read-out: NRAS Q61K FRET data IC50
NRAS Q61K, sequence (P01111 whole entry Q61K): as the sequence (P01111 whole entry G12C) above, with C12G, Q61K counted along it
NRAS Q61K, sequence (P62937 whole entry): as the sequence (P62937 whole entry) above
Method in brief: as §3

NRAS Q61R = NRAS Q61R (Homo sapiens, UniProt P01111+P62937, Q61R); assay: as above; format: biochemical; conditions: NRAS Q61R; read-out: NRAS Q61R FRET data IC50
NRAS Q61R, sequence (P01111 whole entry Q61R): as the sequence (P01111 whole entry G12C) above, with C12G, Q61R counted along it
NRAS Q61R, sequence (P62937 whole entry): as the sequence (P62937 whole entry) above
Method in brief: as §3

[1] = read-out: KRAS G12D FRET data, IC50
[2] = read-out: KRAS G12C FRET data, IC50
[3] = KRAS WT, read-out: KRAS WT FRET data IC50
[4] = KRAS G12V, read-out: KRAS G12V FRET data IC50
[5] = NRAS G12C, read-out: NRAS G12C FRET data IC50
[6] = read-out: KRAS G12S FRET data, IC50
[7] = KRAS G13D, read-out: KRAS G13D FRET data IC50
[8] = read-out: KRAS G13C FRET data, IC50
[9] = KRAS WT FRET data IC50, KRAS WT
[10] = KRAS G12V FRET data IC50, KRAS G12V
[11] = NRAS G12C FRET data IC50, NRAS G12C
[12] = KRAS G13D FRET data IC50, KRAS G13D

Compound	IC50 (NCI-H358 (K-Ras G12C)) [nM]	IC50 (KRAS G12D; [1]) [nM]	IC50 (KRAS G12C; [2]) [nM]	IC50 (KRAS WT; [3]) [nM]	IC50 (KRAS G12V; [4]) [nM]	IC50 (NRAS G12C; [5]) [nM]	IC50 (KRAS G12S; [6]) [nM]	IC50 (KRAS G13D; [7]) [nM]	IC50 (KRAS G13C; [8]) [nM]	IC50 (NRAS WT) [nM]	IC50 (KRAS Q61H) [nM]	IC50 (NRAS Q61K) [nM]	IC50 (NRAS Q61R) [nM]	IC50 (Capan-1 (K-Ras G12V)) [nM]	other results
CCn1c(-c2cccnc2[C@H](C)OC)c2c3cc(ccc31)-c1csc(n1)C[C@H](NC(=O)[C@H](C(C)C)N(C)C(=O)N1CCC13CCN(C)CC3)C(=O)N1CCC[C@H](N1)C(=O)OCC(C)(C)C2 [Example A273]	10 to 100	100 to 1000	10 to 100	100 to 1000	100 to 1000	10 to 100	10 to 100	100 to 1000	100 to 1000	10 to 100	10 to 100	100 to 1000	100 to 1000	100 to 1000	
CCn1c(-c2cc(N3CCN(C)CC3)cnc2[C@H](C)OC)c2c3cc(ccc31)-c1csc(n1)C[C@H](NC(=O)[C@H](C(C)C)N(C)C(=O)N(C)C)C(=O)N1CCC[C@H](N1)C(=O)OCC(C)(C)C2 (atropisomer, axis not shown) [Example A277, (2S)—N-((6^3S,4S,Z)-1^1-ethyl-1^2-(2-((S)-1-methoxyethyl)-5-(4-methylpiperazin-1-yl)pyridin-3-yl)-10,10-dimethyl-5,7-dioxo-6^1,6^2,6^3,6^4,6^5,6^6-hexahydro-1^1H-8-oxa-2(4,2)-thiazola-1(5,3)-indola-6(1,3)-pyridazinacycloundecaphane-4-yl)-3-methyl-2-(1,3,3-trimethylureido)butanamide]	< 10	100 to 1000	10 to 100	10 to 100	10 to 100	10 to 100	10 to 100	10 to 100	10 to 100	10 to 100	10 to 100	10 to 100	10 to 100	< 10	
CCn1c(-c2cccnc2[C@H](C)OC)c2c3cc(ccc31)-c1csc(n1)C[C@H](NC(=O)[C@H](C(C)C)N(C)C(=O)N1CC3(CC(N(C)CCO)C3)C1)C(=O)N1CCC[C@H](N1)C(=O)OCC(C)(C)C2 (atropisomer, axis not shown) [Example A467]	10 to 100	100 to 1000	10 to 100	100 to 1000	100 to 1000	10 to 100	100 to 1000	100 to 1000	100 to 1000	100 to 1000	10 to 100	10 to 100	100 to 1000	10 to 100	
CCn1c(-c2cccnc2[C@H](C)OC)c2c3cc(ccc31)-c1csc(n1)C[C@H](NC(=O)[C@H](C(C)C)N1CCN(C)C1=O)C(=O)N1CCC[C@H](N1)C(=O)OCC(C)(C)C2 [Example A389]	10 to 100	1000 to 10000	100 to 1000	1000 to 10000	1000 to 10000	100 to 1000	1000 to 10000	1000 to 10000	1000 to 10000	1000 to 10000	100 to 1000	100 to 1000	1000 to 10000	10 to 100	
CCn1c(-c2cccnc2[C@H](C)OC)c2c3cc(ccc31)-c1csc(n1)C[C@H](NC(=O)[C@H](C(C)C)N(C)C(=O)N1CCN3CCOC[C@@H]3C1)C(=O)N1CCC[C@H](N1)C(=O)OCC(C)(C)C2 [Example A547]	10 to 100	1000 to 10000	100 to 1000	100 to 1000	100 to 1000	100 to 1000	100 to 1000	1000 to 10000	100 to 1000	100 to 1000	100 to 1000	100 to 1000	100 to 1000	10 to 100	

Further lines, with some results ahead:

IC50 (NCI-H358 (K-Ras G12C)) [nM]	IC50 (KRAS G12D; [1]) [nM]	IC50 (KRAS G12C; [2]) [nM]	IC50 (KRAS WT; [3]) [nM]	IC50 (KRAS G12V; [4]) [nM]	IC50 (NRAS G12C; [5]) [nM]	IC50 (KRAS G12S; [6]) [nM]	IC50 (KRAS G13D; [7]) [nM]	IC50 (KRAS G13C; [8]) [nM]	IC50 (NRAS WT) [nM]	IC50 (KRAS Q61H) [nM]	IC50 (NRAS Q61K) [nM]	IC50 (NRAS Q61R) [nM]	Compound	IC50 (Capan-1 (K-Ras G12V)) [nM]	other results
100 to 1000									1000 to 10000	100 to 1000	1000 to 10000	1000 to 10000	CCn1c(-c2cccnc2[C@H](C)OC)c2c3cc(ccc31)-c1csc(n1)C[C@H](NC(=O)[C@H](C(C)C)N(C)C(=O)N1CCOC[C@@H]1CN(C)C)C(=O)N1CCC[C@H](N1)C(=O)OCC(C)(C)C2 [Example A572]	1000 to 10000	IC50 (KRAS G12D; KRAS G12D FRET data, IC50): 1000 to 10000 nM; IC50 (KRAS G12C; KRAS G12C FRET data, IC50): 1000 to 10000 nM; IC50 (KRAS WT; [9]): 1000 to 10000 nM; IC50 (KRAS G12V; [10]): 1000 to 10000 nM; IC50 (NRAS G12C; [11]): 1000 to 10000 nM; IC50 (KRAS G12S; KRAS G12S FRET data, IC50): 1000 to 10000 nM; IC50 (KRAS G13D; [12]): 1000 to 10000 nM; IC50 (KRAS G13C; KRAS G13C FRET data, IC50): 1000 to 10000 nM
100 to 1000	1000 to 10000	100 to 1000	100 to 1000	1000 to 10000	100 to 1000	1000 to 10000	1000 to 10000	1000 to 10000	100 to 1000	100 to 1000	100 to 1000	100 to 1000	CCn1c(-c2cccnc2[C@H](C)OC)c2c3cc(ccc31)-c1csc(n1)C[C@H](NC(=O)[C@H](C(C)C)N(C)C(=O)O[C@H]1CCOC1)C(=O)N1CCC[C@H](N1)C(=O)OCC(C)(C)C2 [Example A210]	10 to 100	
10 to 100									10 to 100	10 to 100	10 to 100	100 to 1000	CCn1c(-c2cccnc2[C@H](C)OC)c2c3cc(ccc31)-c1csc(n1)C[C@H](NC(=O)[C@H](C(C)C)N(C)C(=O)N1CCC(N(C)C)CC1)C(=O)N1CCC[C@H](N1)C(=O)OCC(C)(C)C2 (atropisomer, axis not shown) [Example A571]	10 to 100	IC50 (KRAS G12D; KRAS G12D FRET data, IC50): 100 to 1000 nM; IC50 (KRAS G12C; KRAS G12C FRET data, IC50): 10 to 100 nM; IC50 (KRAS WT; [9]): 10 to 100 nM; IC50 (KRAS G12V; [10]): 100 to 1000 nM; IC50 (NRAS G12C; [11]): 10 to 100 nM; IC50 (KRAS G12S; KRAS G12S FRET data, IC50): 100 to 1000 nM; IC50 (KRAS G13D; [12]): 100 to 1000 nM; IC50 (KRAS G13C; KRAS G13C FRET data, IC50): 100 to 1000 nM
10 to 100	100 to 1000	10 to 100	10 to 100	10 to 100	10 to 100	10 to 100	10 to 100	10 to 100	10 to 100	10 to 100	10 to 100	10 to 100	CCn1c(-c2cccnc2[C@H](C)OC)c2c3cc(ccc31)-c1csc(n1)C[C@H](NC(=O)[C@H](C(C)C)N(C)C(=O)N(C)C1CCC1)C(=O)N1CCC[C@H](N1)C(=O)OCC(C)(C)C2 (atropisomer, axis not shown) [Example A349]	100 to 1000	
100 to 1000	100 to 1000	100 to 1000	10 to 100	100 to 1000	100 to 1000	100 to 1000	100 to 1000	100 to 1000	10 to 100	10 to 100	100 to 1000	100 to 1000	CCn1c(-c2cccnc2[C@H](C)OC)c2c3cc(ccc31)-c1cc(O)cc(c1)C[C@H](NC(=O)[C@H](C(C)C)N(C)C(=O)[C@H]1C[C@@H]1C)C(=O)N1CCC[C@H](N1)C(=O)OCC(C)(C)C2 [Example A287]	100 to 1000	
< 10	100 to 1000	10 to 100	100 to 1000	100 to 1000	10 to 100	100 to 1000	100 to 1000	100 to 1000	100 to 1000	10 to 100	10 to 100	100 to 1000	CCn1c(-c2cccnc2[C@H](C)OC)c2c3cc(ccc31)-c1csc(n1)C[C@H](NC(=O)[C@H](C(C)C)N(C)C(=O)N1CC(OC(F)F)C1)C(=O)N1CCC[C@H](N1)C(=O)OCC(C)(C)C2 (atropisomer, axis not shown) [Example A302]	10 to 100	
